Source: US11649242B2, “Pyrrolopyrrole compositions as pyruvate kinase (PKR) activators” (FORMA Therapeutics, Inc., priority 2017, dated 2023)

Tests used:
Format in all cases: biochemical
PKR(G332S) = PKR(G332S) (Homo sapiens, UniProt P30613, G332S); experiment: Luminescence Assay Protocol (Kinase Glo Plus), PKR(G332S/with FBP); conditions: PKRG332S, with FBP; for activation at 1.54 µM: compound 1.54 μM, read-out: C - AC50 LUM KGP FBP % Fold @ 1.54 μM mean; for AC50: gmean, read-out: A - AC50 LUM KGP FBP AC50 μM gmean; for Emax: highest % fold increase at any concentration, read-out: B - AC50 LUM KGP FBP MAX % FOLD mean
Protocol: (§1) Example 47: PKR(Wt/without FBP), PKR(G332S/with FBP), PKR(R510Q/without FBP)
(§2) The phosphorylation of Adenosine-5′-diphosphate (ADP) by various mutants of PKR was determined by the Kinase Glo Plus Assay (Promega) in the presence or absence of FBP [D-Fructose-1,6-diphosphate; BOC Sciences, CAS: 81028-91-3] as follows. Unless otherwise indicated, all reagents were purchased from Sigma-Aldrich. All reagents were prepared in buffer containing 50 mM Tris-HCl, 100 mM KCl, 5 mM MgCl2, and 0.01% Triton X100, 0.03% BSA, and 1 mM DTT. Enzyme and PEP [Phospho(enol) pyruvic acid] were added at 2× to all wells of an assay-ready plate containing serial dilutions of test compounds or DMSO vehicle. Final enzyme concentrations for PKR(wt), PKR(R510Q), and PKR(G332S) were 0.8 nM, 0.8 nM, and 10 nM respectively. Final PEP concentration was 100 μM. The Enzyme/PEP mixture was incubated with compounds for 30 minutes at RT before the assay was initiated with the addition of 2×ADP [Adenosine-5′-diphosphate] and KinaseGloPlus. Final concentration of ADP was 100 μM. […] For assays containing FBP, that reagent is added at 30 μM upon reaction initiation. Reactions were allowed to progress for 45 minutes at RT until luminescence was recorded by the BMG PHERAstar FS Multilabel Reader. All compounds were tested in triplicate at concentrations ranging from 42.5 μM to 2.2 nM in 0.83% DMSO.
(§3) Luminescence values were converted to % Fold increase by normalizing to the average of the DMSO control and multiplying by 100. Max, min, slope and AC50 were determined by the standard four parameter fit algorithm of ActivityBase XE Runner. Compounds were evaluated with three parameters—AC50, MAX % Fold, and % Fold@1.54 μM (FIG. 1). The AC50 value for a compound is the concentration […] corresponding to the midway between the maximum and minimum values of the four parameter logistic curve fit (i.e., at which the % fold increase along the four parameter logistic curve fit is halfway between MAX % Fold and MIN % Fold (% Fold Midpoint)), MAX % Fold is the highest fold increase observed at any concentration of compound, and % Fold@1.54 μM is the fold increase at a compound concentration of 1.54 μM. The parameter % Fold@1.54 μM was selected to capture elements of both the AC50 and MAX % Fold and to provide a ranking based on both potency and effect. The compound concentration of 1.54 μM was chosen as one that can optimally differentiate the set of compounds based on the range of activities observed.
(§4) As set forth in Tables 6 and 7 below, AC50 values (columns A, D, G) are defined as follows: ≤0.1 μM (+++); >0.1 μM and ≤1.0 μM (++); >1.0 μM and ≤40 μM (+); >40 μM (0). Max % FOLD values (columns B, E, H) are defined as follows: ≤75% (+); >75% and ≤250% (++); >250% and ≤500% (+++). % Fold@1.54 μM values (columns C, F, I) are defined as follows: ≤75% (+); >75% and ≤250% (++); >250% and ≤500% (+++).

PKR(wt) = PKR(wt) (Homo sapiens, UniProt P30613); experiment: Luminescence Assay Protocol (Kinase Glo Plus), PKR(Wt/without FBP); conditions: without FBP; for activation at 1.54 µM: read-out: I - AC50 LUM KGP woFBP % Fold @ 1.54 μM mean; for AC50: gmean, read-out: G - AC50 LUM KGP woFBP AC50 μM gmean; for Emax: read-out: H - AC50 LUM KGP woFBP MAX % FOLD mean
Protocol: as §1, §2, §3, §4

PKR(R510Q) = PKR(R510Q) (Homo sapiens, UniProt P30613, R510Q); experiment: Luminescence Assay Protocol (Kinase Glo Plus), PKR(R510Q/without FBP); conditions: PKRR510Q, without FBP; for activation at 1.54 µM: compound 1.54 μM, read-out: F - AC50 LUM KGP woFBP % Fold @ 1.54 μM mean; for AC50: gmean, read-out: D - AC50 LUM KGP woFBP AC50 μM gmean; for Emax: highest % fold increase at any concentration, read-out: E - AC50 LUM KGP woFBP MAX % FOLD mean
Protocol: as §1, §2, §3, §4

[1] = highest % fold increase at any concentration

Sequence of PKR(G332S) (P30613 whole entry G332S): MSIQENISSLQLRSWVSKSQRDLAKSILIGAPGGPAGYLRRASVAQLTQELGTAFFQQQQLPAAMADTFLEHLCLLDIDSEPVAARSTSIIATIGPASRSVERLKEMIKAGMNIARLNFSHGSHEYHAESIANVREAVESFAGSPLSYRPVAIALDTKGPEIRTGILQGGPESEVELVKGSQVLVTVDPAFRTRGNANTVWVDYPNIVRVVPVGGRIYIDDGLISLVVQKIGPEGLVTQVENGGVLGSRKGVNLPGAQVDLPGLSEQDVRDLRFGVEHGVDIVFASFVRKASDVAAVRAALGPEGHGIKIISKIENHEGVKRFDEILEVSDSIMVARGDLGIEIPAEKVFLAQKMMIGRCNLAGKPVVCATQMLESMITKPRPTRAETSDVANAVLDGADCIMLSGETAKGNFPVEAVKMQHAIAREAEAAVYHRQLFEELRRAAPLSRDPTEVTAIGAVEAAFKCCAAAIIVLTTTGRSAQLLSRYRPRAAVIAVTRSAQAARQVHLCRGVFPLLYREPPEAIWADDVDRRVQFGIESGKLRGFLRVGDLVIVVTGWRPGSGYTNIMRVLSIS
Sequence of PKR(wt) (P30613 whole entry): as the sequence (P30613 whole entry G332S) above, with S332G counted along it
Sequence of PKR(R510Q) (P30613 whole entry R510Q): as the sequence (P30613 whole entry G332S) above, with S332G, R510Q counted along it

Row | activation at 1.54 µM (PKR(G332S)) | AC50 (PKR(G332S)) | Emax (PKR(G332S)) | activation at 1.54 µM (PKR(wt); compound 1.54 μM) | AC50 (PKR(wt)) | Emax (PKR(wt); [1]) | activation at 1.54 µM (PKR(R510Q)) | AC50 (PKR(R510Q)) | Emax (PKR(R510Q)) | I - AC50 LUM KGP woFBP % Fold @ 1.54 μM mean (PKR(wt); compound 1.54 μM) | H - AC50 LUM KGP woFBP MAX % FOLD mean (PKR(wt); [1]) | Compound
1 | 75 to 250% | > 40 µM | 75 to 250% | 75 to 250% | ≤ 0.1 µM | 75 to 250% | 75 to 250% | > 40 µM | 75 to 250% |  |  | CN1CCOc2ccc(S(=O)(=O)N3CC4=C(CN(C(=O)C(CO)c5ccccc5)C4)C3)cc21 (stereo not shown) [Example 46, 3-hydroxy-1-(5-((4-methyl-3,4-dihydro-2H-benzo[b][1,4]oxazin-6-yl)sulfonyl)-3,4,5,6-tetrahydropyrrolo[3,4-c]pyrrol-2(1H)-yl)-2-phenylpropan-1-one]
2 |  | > 40 µM |  |  | 1 to 40 µM |  |  | > 40 µM |  | ++ (>75% and ≤250% (++)) | ++ (>75% and ≤250% (++)) | O=C(C1CCCOC1)N1CC2=C(C1)CN(S(=O)(=O)c1cnc3c(c1)OCCO3)C2 (single isomer, unassigned) [Example 6, (S or R)-(5-((2,3-dihydro-[1,4]dioxino[2,3-b]pyridin-7-yl)sulfonyl)-3,4,5,6-tetrahydropyrrolo[3,4-c]pyrrol-2(1H)-yl)(tetrahydro-2H-pyran-3-yl)methanone]
3 | 75 to 250% |  | 75 to 250% | 75 to 250% |  | 75 to 250% | 250 to 500% |  | 250 to 500% |  |  | O=C([C@H](CO)c1ccccc1)N1CC2=C(C1)CN(S(=O)(=O)c1cnc3c(c1)OCCO3)C2 (single isomer, unassigned) [Example 1]
4 | 75 to 250% | ≤ 0.1 µM | 75 to 250% | 250 to 500% | ≤ 0.1 µM | 250 to 500% | 250 to 500% | ≤ 0.1 µM | 250 to 500% |  |  | O=C(C(CO)c1ccccc1)N1CC2=C(C1)CN(S(=O)(=O)c1ccc3ncsc3c1)C2 (stereo not shown) [Example 48, 1-(5-(benzo[d]thiazol-6-ylsulfonyl)-3,4,5,6-tetrahydropyrrolo[3,4-c]pyrrol-2(1H)-yl)-3-hydroxy-2-phenylpropan-1-one]
5 | 75 to 250% |  | 75 to 250% | 75 to 250% |  | 75 to 250% | 75 to 250% |  | 250 to 500% |  |  | O=C([C@@H](CO)c1ccccc1)N1CC2=C(C1)CN(S(=O)(=O)c1cnc3c(c1)OCCO3)C2 (single isomer, unassigned) [Example 2]
6 | 75 to 250% | > 40 µM | 75 to 250% | 75 to 250% | 0.1 to 1 µM | 75 to 250% | 75 to 250% | 1 to 40 µM | 250 to 500% |  |  | CN1CCOc2ccc(S(=O)(=O)N3CC4=C(CN(C(=O)C5CCOC5)C4)C3)cc21 (stereo not shown) [Example 47, (5-((4-methyl-3,4-dihydro-2H-benzo[b][1,4]oxazin-6-yl)sulfonyl)-3,4,5,6-tetrahydropyrrolo[3,4-c]pyrrol-2(1H)-yl)(tetrahydrofuran-3-yl)methanone]
7 |  | ≤ 0.1 µM |  | 75 to 250% | 0.1 to 1 µM | 75 to 250% |  | 0.1 to 1 µM |  |  |  | CC(C)(CO)C(=O)N1CC2=C(C1)CN(S(=O)(=O)c1ccc(OC(F)F)cc1)C2 [Example 7, 1-(5-((4-(difluoromethoxy)phenyl)sulfonyl)-3,4,5,6-tetrahydropyrrolo[3,4-c]pyrrol-2(1H)-yl)-3-hydroxy-2,2-dimethylpropan-1-one]
8 | 75 to 250% | 1 to 40 µM | 75 to 250% | 75 to 250% | 0.1 to 1 µM | 75 to 250% | 75 to 250% | 1 to 40 µM | 250 to 500% |  |  | O=C(C1CCCOC1)N1CC2=C(C1)CN(S(=O)(=O)c1cnc3c(c1)OCCO3)C2 (single isomer, unassigned) [Example 5, (R or S)-(5-((2,3-dihydro-[1,4]dioxino[2,3-b]pyridin-7-yl)sulfonyl)-3,4,5,6-tetrahydropyrrolo[3,4-c]pyrrol-2(1H)-yl)(tetrahydro-2H-pyran-3-yl)methanone]
9 | 75 to 250% | > 40 µM | 75 to 250% | 75 to 250% | 0.1 to 1 µM | 75 to 250% | 75 to 250% | 1 to 40 µM | 250 to 500% |  |  | O=C(C1CCCOC1)N1CC2=C(C1)CN(S(=O)(=O)c1ccc3ncsc3c1)C2 (stereo not shown) [Example 15, (5-(benzo[d]thiazol-6-ylsulfonyl)-3,4,5,6-tetrahydropyrrolo[3,4-c]pyrrol-2(1H)-yl)(tetrahydro-2H-pyran-3-yl)methanone]
10 | 75 to 250% | > 40 µM | 75 to 250% | 75 to 250% | ≤ 0.1 µM | 75 to 250% | 75 to 250% | ≤ 0.1 µM | 75 to 250% |  |  | CC1(C)CNc2cc(S(=O)(=O)N3CC4=C(CN(C(=O)[C@H](CO)c5ccccc5)C4)C3)ccc2O1 [Example 32, (S)-1-(5-((2,2-dimethyl-3,4-dihydro-2H-benzo[b][1,4]oxazin-6-yl)sulfonyl)-3,4,5,6-tetrahydropyrrolo[3,4-c]pyrrol-2(1H)-yl)-3-hydroxy-2-phenylpropan-1-one]
11 | 75 to 250% | ≤ 0.1 µM | 75 to 250% | 250 to 500% | 0.1 to 1 µM | 250 to 500% | 250 to 500% | 0.1 to 1 µM | 250 to 500% |  |  | O=C(C1CCOC1)N1CC2=C(C1)CN(S(=O)(=O)c1ccc3c(c1)NCCO3)C2 (stereo not shown) [Example 39, (5-((3,4-dihydro-2H-benzo[b][1,4]oxazin-6-yl)sulfonyl)-3,4,5,6-tetrahydropyrrolo[3,4-c]pyrrol-2(1H)-yl)(tetrahydrofuran-3-yl)methanone]
12 | 75 to 250% | ≤ 0.1 µM | 75 to 250% |  |  |  | 75 to 250% | 0.1 to 1 µM | 250 to 500% |  |  | COCCC(=O)N1CC2=C(C1)CN(S(=O)(=O)c1ccc3occc3c1)C2 [Example 58, 1-(5-(benzofuran-5-ylsulfonyl)-3,4,5,6-tetrahydropyrrolo[3,4-c]pyrrol-2(1H)-yl)-3-methoxypropan-1-one]
13 | 75 to 250% | ≤ 0.1 µM | 75 to 250% |  |  |  | 75 to 250% | 0.1 to 1 µM | 75 to 250% |  |  | COCCC(=O)N1CC2=C(C1)CN(S(=O)(=O)c1ccc3c(c1)OCCO3)C2 [Example 57, 1-(5-((2,3-dihydrobenzo[b][1,4]dioxin-6-yl)sulfonyl)-3,4,5,6-tetrahydropyrrolo[3,4-c]pyrrol-2(1H)-yl)-3-methoxypropan-1-one]
